# How the values were obtained:
# foxtail, giant [1] = assay: Test A preemergence; assay type: in vivo, Setaria faberii; details: preemergence
# How it was run: (§1)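 Ratings express plant response from 0 (no effect) to 100 (complete control), judged visually against untreated controls after approximately 10 days in the greenhouse. Preemergence applications were made as directed soil sprays onto seeded loam–sand mix, and postemergence applications onto 2–10 cm plants at one- to two-leaf stage.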
# pigweed [2] = assay: Test A preemergence; assay type: in vivo, Amaranthus retroflexus; details: preemergence
# How it was run: as §1
# crabgrass, large = assay: Test A postemergence; assay type: in vivo, Digitaria sanguinalis
# How it was run: as §1
# corn = assay: Test A postemergence; assay type: in vivo, Zea mays
# How it was run: as §1
# blackgrass [3] = assay: Test C preemergence; assay type: in vivo, Alopecurus myosuroides; details: for Plant response rating (scale of 0 to 100), Blackgrass: Preemergence, 250 g ai/ha; for Blackgrass plant response rating: preemergence
# How it was run: (§2)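 Postemergence values come from plants sprayed at the 1- to 4-leaf stage (2–18 cm) in peat moss–vermiculite medium; preemergence values from seeds treated in a loam–sand blend. Both evaluated visually against controls after 13–15 greenhouse days, scale 0–100.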
# galium = assay: Test C preemergence; assay type: in vivo, Galium aparine; details: for Plant response rating (scale of 0 to 100), Galium: Preemergence, 250 g ai/ha; for Galium plant response rating: preemergence
# How it was run: as §2
# johnsongrass = assay: Test C preemergence; assay type: in vivo, Sorghum halepense; details: for Plant response rating (scale of 0 to 100), Johnsongrass: Preemergence, 250 g ai/ha; for Johnsongrass plant response rating: preemergence
# How it was run: as §2
# pigweed [4] = assay: Test C preemergence; assay type: in vivo, Amaranthus retroflexus; details: for Plant response rating (scale of 0 to 100), Pigweed: Preemergence, 250 g ai/ha; for Pigweed plant response rating: preemergence
# How it was run: as §2
# blackgrass [5] = assay: Test C postemergence; assay type: in vivo, Alopecurus myosuroides; details: for Plant response rating (scale of 0 to 100 where 0 is no effect and 100 is complete control), Blackgrass: Postemergence, 31 g ai/ha, visually evaluated after 13 to 15 days; for Blackgrass plant response rating / Plant response rating, Blackgrass: postemergence; for Blackgrass plant response rating: 62 g ai/ha, scale 0 to 100
# How it was run: as §2
# wheat = assay: Test C postemergence; assay type: in vivo, Triticum aestivum; details: for Plant response rating (scale of 0 to 100 where 0 is no effect and 100 is complete control), Wheat: Postemergence, 31 g ai/ha, visually evaluated after 13 to 15 days; for Wheat plant response rating / Plant response rating, Wheat: postemergence; for Wheat plant response rating: 62 g ai/ha, scale 0 to 100
# How it was run: as §2
# foxtail, giant [6] = assay: Test C postemergence; assay type: in vivo, Setaria faberii; details: for Plant response rating (scale of 0 to 100 where 0 is no effect and 100 is complete control), Foxtail, Giant: Postemergence, 31 g ai/ha, visually evaluated after 13 to 15 days; for Foxtail, Giant plant response rating / Plant response rating, Foxtail, Giant: postemergence; for Foxtail, Giant plant response rating: 62 g ai/ha, scale 0 to 100
# How it was run: as §2
# pigweed [7] = assay: Test C postemergence; assay type: in vivo, Amaranthus retroflexus; details: for Plant response rating (scale of 0 to 100 where 0 is no effect and 100 is complete control), Pigweed: Postemergence, 31 g ai/ha, visually evaluated after 13 to 15 days; for Pigweed plant response rating / Plant response rating, Pigweed: postemergence; for Pigweed plant response rating: 62 g ai/ha, scale 0 to 100
# How it was run: as §2
# ragweed = assay: Test C postemergence; assay type: in vivo, Ambrosia elation
# How it was run: as §2
# soybean = assay: Test C postemergence; assay type: in vivo, Glycine max; details: for Plant response rating (scale of 0 to 100 where 0 is no effect and 100 is complete control), Soybean: Postemergence, 31 g ai/ha, visually evaluated after 13 to 15 days; for Soybean plant response rating / Plant response rating, Soybean: postemergence; for Soybean plant response rating: 62 g ai/ha, scale 0 to 100
# How it was run: as §2
# barnyardgrass = assay: Test C postemergence; assay type: in vivo, Echinochloa crus-galli; details: for Plant response rating (scale of 0 to 100 where 0 is no effect and 100 is complete control), Barnyardgrass: Postemergence, 31 g ai/ha, visually evaluated after 13 to 15 days; for Barnyardgrass plant response rating / Plant response rating, Barnyardgrass: postemergence; for Barnyardgrass plant response rating: 62 g ai/ha, scale 0 to 100
# How it was run: as §2
# [8] = 125 g ai/ha, visual injury, 0 to 100 scale, approx. 10 days
# [9] = 500 g ai/ha, visual injury after approx. 10 days, 0 to 100 scale (0 no effect, 100 complete control)
# [10] = Postemergence, 500 g ai/ha, visual rating after approx. 10 days, 0 to 100 scale (0 no effect, 100 complete control)
# [11] = postemergence, 125 g ai/ha, about 10 days, visual rating on 0 to 100 scale (0 no effect, 100 complete control)
# [12] = 31 g ai/ha, visual rating, scale 0 to 100 (0 no effect, 100 complete control), 13 to 15 days
# [13] = 62 g ai/ha, scale 0 to 100 (0 no effect, 100 complete control), 13 to 15 days
# [14] = 125 g ai/ha, scale 0 to 100, 0 is no effect, 100 is complete control
# [15] = 250 g ai/ha, scale 0 to 100 (0 no effect, 100 complete control)
# [16] = 125 g ai/ha, scale 0 to 100, 0 no effect, 100 complete control
# [17] = postemergence, 250 g ai/ha, scale 0 to 100 (0 no effect, 100 complete control)
structure (smiles),measurement,setting,value
"CCc1cc(C(=O)NCC(F)(F)F)nn1Cc1cc(C(F)(F)F)nn1C [Compound 108, 5-ethyl-1-[[1-methyl-3-(trifluoromethyl)-1H-pyrazole-5-yl]methyl]-N-(2,2,2-trifluoroethyl)-1H-pyrazole-3-carboxamide]","Foxtail, Giant plant response rating","foxtail, giant [1]; [8]",100
same,"Foxtail, Giant plant response rating","foxtail, giant [1]; [9]",100
same,Pigweed plant response rating,pigweed [2]; [8],100
same,Pigweed plant response rating,pigweed [2]; [9],100
same,"Crabgrass, Large plant response rating","crabgrass, large; [10]",100
same,"Crabgrass, Large plant response rating","crabgrass, large; [11]",90
same,Corn plant response rating,corn; [10],100
same,Corn plant response rating,corn; [11],80
same,"Plant response rating (scale of 0 to 100), Blackgrass",blackgrass [3],100
same,Blackgrass plant response rating,blackgrass [3]; [12],100
same,Blackgrass plant response rating,blackgrass [3]; [13],100
same,Blackgrass plant response rating,blackgrass [3]; [14],100
same,"Plant response rating (scale of 0 to 100), Galium",galium,100
same,Galium plant response rating,galium; [12],85
same,Galium plant response rating,galium; [13],100
same,Galium plant response rating,galium; [14],100
same,"Plant response rating (scale of 0 to 100), Johnsongrass",johnsongrass,100
same,Johnsongrass plant response rating,johnsongrass; [12],35
same,Johnsongrass plant response rating,johnsongrass; [13],90
same,Johnsongrass plant response rating,johnsongrass; [14],100
same,"Plant response rating (scale of 0 to 100), Pigweed",pigweed [4],100
same,Pigweed plant response rating,pigweed [4]; [12],100
same,Pigweed plant response rating,pigweed [4]; [13],100
same,Pigweed plant response rating,pigweed [4]; [14],100
same,"Plant response rating (scale of 0 to 100 where 0 is no effect and 100 is complete control), Blackgrass",blackgrass [5],0
same,Blackgrass plant response rating,blackgrass [5],5
same,"Plant response rating, Blackgrass",blackgrass [5]; [15],30
same,"Plant response rating, Blackgrass",blackgrass [5]; [16],5
same,"Plant response rating (scale of 0 to 100 where 0 is no effect and 100 is complete control), Wheat",wheat,0
same,Wheat plant response rating,wheat,5
same,"Plant response rating, Wheat",wheat; [15],20
same,"Plant response rating, Wheat",wheat; [16],10
same,"Plant response rating (scale of 0 to 100 where 0 is no effect and 100 is complete control), Foxtail, Giant","foxtail, giant [6]",10
same,"Foxtail, Giant plant response rating","foxtail, giant [6]",30
same,"Plant response rating, Foxtail, Giant","foxtail, giant [6]; [15]",45
same,"Plant response rating, Foxtail, Giant","foxtail, giant [6]; [16]",40
same,"Plant response rating (scale of 0 to 100 where 0 is no effect and 100 is complete control), Pigweed",pigweed [7],40
same,Pigweed plant response rating,pigweed [7],45
same,"Plant response rating, Pigweed",pigweed [7]; [15],90
same,"Plant response rating, Pigweed",pigweed [7]; [16],50
same,"Plant response rating (scale of 0 to 100 where 0 is no effect and 100 is complete control), Ragweed","ragweed; Postemergence, 31 g ai/ha, visually evaluated after 13 to 15 days",10
same,Ragweed plant response rating,"ragweed; postemergence, 62 g ai/ha, scale 0 to 100",50
same,"Plant response rating, Ragweed",ragweed; [17],85
same,"Plant response rating, Ragweed","ragweed; postemergence, 125 g ai/ha, scale 0 to 100, 0 no effect, 100 complete control",50
same,"Plant response rating (scale of 0 to 100 where 0 is no effect and 100 is complete control), Soybean",soybean,30
same,Soybean plant response rating,soybean,90
same,"Plant response rating, Soybean",soybean; [15],98
same,"Plant response rating, Soybean",soybean; [16],90
same,"Plant response rating (scale of 0 to 100 where 0 is no effect and 100 is complete control), Barnyardgrass",barnyardgrass,0
same,Barnyardgrass plant response rating,barnyardgrass,0
same,"Plant response rating, Barnyardgrass",barnyardgrass; [15],35
same,"Plant response rating, Barnyardgrass",barnyardgrass; [16],5
CCCNC(=O)c1cc(CC)n(Cc2nc(C(F)(F)F)nn2C)n1 [Compound 109],"Foxtail, Giant plant response rating","foxtail, giant [1]; [8]",100
same,"Foxtail, Giant plant response rating","foxtail, giant [1]; [9]",100
same,Pigweed plant response rating,pigweed [2]; [8],100
same,Pigweed plant response rating,pigweed [2]; [9],100
same,"Crabgrass, Large plant response rating","crabgrass, large; [10]",90
same,"Crabgrass, Large plant response rating","crabgrass, large; [11]",90
same,Corn plant response rating,corn; [10],90
same,Corn plant response rating,corn; [11],80
same,"Plant response rating (scale of 0 to 100), Blackgrass",blackgrass [3],100
same,Blackgrass plant response rating,blackgrass [3]; [12],100
same,Blackgrass plant response rating,blackgrass [3]; [13],100
same,Blackgrass plant response rating,blackgrass [3]; [14],100
same,"Plant response rating (scale of 0 to 100), Galium",galium,100
same,Galium plant response rating,galium; [12],10
same,Galium plant response rating,galium; [13],100
same,Galium plant response rating,galium; [14],100
same,"Plant response rating (scale of 0 to 100), Johnsongrass",johnsongrass,100
same,Johnsongrass plant response rating,johnsongrass; [12],80
same,Johnsongrass plant response rating,johnsongrass; [13],90
same,Johnsongrass plant response rating,johnsongrass; [14],100
same,"Plant response rating (scale of 0 to 100), Pigweed",pigweed [4],100
same,Pigweed plant response rating,pigweed [4]; [12],70
same,Pigweed plant response rating,pigweed [4]; [13],100
same,Pigweed plant response rating,pigweed [4]; [14],100
same,"Plant response rating (scale of 0 to 100 where 0 is no effect and 100 is complete control), Blackgrass",blackgrass [5],5
same,Blackgrass plant response rating,blackgrass [5],5
same,"Plant response rating, Blackgrass",blackgrass [5]; [15],15
same,"Plant response rating, Blackgrass",blackgrass [5]; [16],10
same,"Plant response rating (scale of 0 to 100 where 0 is no effect and 100 is complete control), Wheat",wheat,0
same,Wheat plant response rating,wheat,0
same,"Plant response rating, Wheat",wheat; [15],0
same,"Plant response rating, Wheat",wheat; [16],0
same,"Plant response rating (scale of 0 to 100 where 0 is no effect and 100 is complete control), Foxtail, Giant","foxtail, giant [6]",10
same,"Foxtail, Giant plant response rating","foxtail, giant [6]",10
same,"Plant response rating, Foxtail, Giant","foxtail, giant [6]; [15]",50
same,"Plant response rating, Foxtail, Giant","foxtail, giant [6]; [16]",45
same,"Plant response rating (scale of 0 to 100 where 0 is no effect and 100 is complete control), Pigweed",pigweed [7],10
same,Pigweed plant response rating,pigweed [7],40
same,"Plant response rating, Pigweed",pigweed [7]; [15],65
same,"Plant response rating, Pigweed",pigweed [7]; [16],65
same,"Plant response rating, Ragweed",ragweed; [17],80
same,"Plant response rating (scale of 0 to 100 where 0 is no effect and 100 is complete control), Soybean",soybean,55
same,Soybean plant response rating,soybean,60
same,"Plant response rating, Soybean",soybean; [15],75
same,"Plant response rating, Soybean",soybean; [16],75
same,"Plant response rating (scale of 0 to 100 where 0 is no effect and 100 is complete control), Barnyardgrass",barnyardgrass,5
same,Barnyardgrass plant response rating,barnyardgrass,5
same,"Plant response rating, Barnyardgrass",barnyardgrass; [15],20
same,"Plant response rating, Barnyardgrass",barnyardgrass; [16],10

# From patent US20150105252A1, “SUBSTITUTED PYRAZOLES AS HERBICIDES” (E I DU PONT DE NEMOURS AND COMPANY, priority 2013, published 2015)
